According to a melting point compilation (Tetko et al.; mined from patent text by program, amines drawn as free bases though some values may be those of a salt):

| SMILES | melting point |
| --- | --- |
| Cc1c(C)c2c(c(C)c1NC(=O)CC(C)(C)C)C(c1ccc(Br)cc1)C(C)(C)O2 (stereo unspecified) | 201 to 202 °C |
| CC(C)Oc1ccc2c(c1O)OC(C)(C)CC2=O | 114 to 116 °C |
| Cc1cccc2sc(-c3ccccn3)nc(=O)c12 | 151 °C |
| CC(C)(C)OC(=O)Nc1cc(Br)cc(C(F)(F)F)c1 | 113 to 115 °C |
| CC1=NN=C(C=Cc2cccc(F)c2)c2cc3c(cc2C1)OCO3 | 161 to 162 °C |
| COc1cc(Cn2ccc3ncnc-3c2)ccc1C(=O)N(C1CCCC1)C1CC(C)CC(C)C1 (stereo unspecified) | 218 to 220 °C |
| COc1ccc2c(-c3ccccc3)c(C(=O)O)c(=O)[nH]c2c1 | 292 to 294 °C |
| Clc1ccc(N2CC(c3ccccc3)=C(c3ccccc3)C2)cc1 | 158 °C |
| COc1cccc(C(F)(F)F)c1S(=O)(=O)Cl | 86 to 88 °C |
| Cc1ccc(C(=O)c2noc(CC#N)n2)cc1 | 76 to 78 °C |
| COc1c(N(C)C)cc(CC(C#N)=CNc2ccccc2)cc1N(C)C | 103 to 105 °C |
| Cc1c(C(=O)O)nnn1Cc1ccccc1Cl | 186 to 187 °C |
| C[C@@H]1CN(Cc2ccc(F)cc2)CCN1C(=O)/C=C/c1ccc(Cl)cc1NC(=O)N1CCNC1=O | 275 to 277 °C |
| COC(=O)c1ccc(CCc2cnc3nc(N)nc(O)c3c2)cc1 | > 300 °C |
| O=Cc1ccc(OCc2ccccn2)cc1O | 89.2 to 89.7 °C |
| O=C(NN1CCN(C(=O)Cl)C1=O)OCc1ccccc1 | 102 to 105 °C |
| COc1c(Nc2ccccc2)ccc2ccccc12 | 43 to 45 °C |
| Cn1c(COc2ccc(CC3SC(=O)NC3=O)cc2)nc2ccc(Oc3ccc(NC(=O)NC45CC6CC(CC(C6)C4)C5)cc3)cc21 (stereo unspecified) | 164 to 167 °C |
| CS(=O)(=O)c1ccc(-c2cc(CCO[N+](=O)[O-])nn2C2CCCCC2)cc1 | 117 °C |
| Cc1oc(-c2ccccc2)nc1C(O)COc1ccc(C=C2SC(=S)NC2=O)nc1 (stereo unspecified) | 218 °C |
| CCOc1ccc(-c2ccc3c(c2)C=C(C(=O)Nc2ccc(CN(C)C4CCOCC4)cc2)CCS3(=O)=O)cc1OCC | 224 to 226 °C |
| O=C(NC(Cc1ccccc1)C(=O)O)c1ccc(-c2ccc(OCc3ccccc3)cc2)nc1 (stereo unspecified) | 240 °C |
| COc1cc(C)c2c(Oc3cccc(C(F)(F)F)c3)c(OC)cc(NC(C)CCCN3C(=O)c4ccccc4C3=O)c2n1 (stereo unspecified) | 117 to 119 °C |
| CCCCCC1=CC(=O)C2=C(OC(C)(C)c3ccc(C)cc32)C1=O | 53 to 54 °C |
| Cc1nnc2n1-c1sc3c(c1C(c1ccccc1Cl)=NC2)CCN(C(=S)Nc1ccccc1C(F)(F)F)C3 | 190 to 192 °C |
| CC(C)c1ccc(N(Cc2cnn(C3CCCC3)c2)C(=O)C2CCCc3c(O)cccc32)cc1 (stereo unspecified) | 173 °C |

| SMILES | melting point |
| --- | --- |
| Cc1cc(C(C)(C)C)c(O)c(C)c1CC(=O)N1CCN(C(=O)Cc2c(C)cc(C(C)(C)C)c(O)c2C)CC1 | 305 to 310 °C |
| CS(=O)c1ccc(C2ON2S(=O)(=O)c2ccccc2)cc1 (stereo unspecified) | 115 to 118 °C |
| COc1ccc(C(=O)CC(=O)C(F)(F)F)cc1OC | 87 to 89 °C |
| C=CCSc1c(O)cc(C)oc1=O | 98 to 98.5 °C |
| COc1cc(O)c(N2CCN(CCN3CC(C)(C)C3)C2=O)cc1Cl | 138 °C |
| Nc1cccc(-c2ccccc2O)c1 | 158 to 161 °C |
| CC(=O)C=Cc1ccc2c(c1)OCO2 | 108 to 109 °C |
| COc1ccc(C(=NO)c2cc(F)ccc2F)c(O)c1Cl | 209 to 210 °C |
| CC(C)(C)OC(=O)NN1CCNC1=O | 186 to 188 °C |
| CNCCn1nc(N)c2cc3cc(OC)ccc3nc21 | 142 to 144 °C |
| CCc1[nH]c(=S)n(Nc2cccc(Cl)c2)c1-c1ccccc1 | 116 to 118 °C |
| Cc1ccc(-c2cncc(OC3SCC(O)C(O)C3O)c2)o1 (stereo unspecified) | 188 °C |
| CCCCNC(=S)N1CCN(c2cnccn2)CC1 | 97.5 to 98.5 °C |
| CC(C)C1COCc2nc3c(N)nc4cc(OCC(=O)N5CCOCC5)ccc4c3n21 (stereo unspecified) | 137 to 139 °C |
| Cc1ncc2ccc(-c3ccc(F)cc3)nc2n1 | > 200 °C |
| COC(=O)COc1cccc2c1c(C(=O)C(N)=O)c(C)n2Cc1cccc2ccccc12 | 188 to 190 °C |
| O=S(=O)(On1nnc2ccccc21)c1ccc(Cl)cc1 | 94 to 95 °C |
| COC(=O)CCCCCCC1=C(OC)C(=O)CC1=O | 103 °C |
| COc1ccc(C2=C(c3ccc(OC4CCCCO4)cc3)CCCc3cc(OC4CCCCO4)ccc32)cc1 (stereo unspecified) | 160 to 161 °C |
| N=C(N)c1cccc(Oc2cc(C(N)=O)cc(Oc3cccc(C(=N)N)c3)n2)c1 | > 210 °C |
| NNc1nc(F)c(C(F)(F)F)cc1Cl | 104 to 106 °C |
| CC(C)(C)OC(=O)NCCc1ccc(O)cc1 | 61 to 62 °C |
| CCCc1c(CSc2nnc(N)s2)ccc(C(C)=O)c1O | 143 to 147 °C |
| Cc1cc(=O)c(OCc2ccccc2)c(C(=O)NC2CCCCC2)o1 | 118 to 120 °C |
| COc1ccc2nc(NC(=O)c3nc4ccccc4[nH]3)sc2c1 | 246 °C |
| COC1=CC(Cl)(OC)NC(C(O)CC(=O)Nc2ccccc2)=N1 (stereo unspecified) | 121 to 123 °C |

| SMILES | melting point |
| --- | --- |
| CCCc1nc2c(nc1O)CCCC2 | 131 to 133 °C |
| O=C(OC(c1ccccc1)c1ccccc1)C(C1CC(Cl)=NO1)N1C(=O)c2ccccc2C1=O (stereo unspecified) | 178 to 179 °C |
| CSc1nccn1CC(=O)NC1C(=O)N2C(C(=O)O)=C(COC(C)=O)CSC12 (stereo unspecified) | 245 to 247 °C |
| CCN(CC)C(=O)n1cnc(S(=O)(=O)c2ccccc2OCC(F)(F)F)n1 | 134 to 135 °C |
| C=Cc1ccc2c(c1)CC(CNC(=O)OC(C)(C)C)CC2 (stereo unspecified) | 98 to 100 °C |
| NC(=O)C1CCCc2c1c1cc(OCCCP(=O)(O)O)ccc1n2Cc1ccccc1 (stereo unspecified) | 200 to 201 °C |
| Cc1c(C(F)(F)F)cnn(-c2cc(OCC=O)c(Cl)cc2F)c1=O | 107 °C |
| Cc1cc(C2CC(C)(C)NC(C)(C)C2)cc(C)c1O | 152 to 154 °C |
| CN(O)C(=O)Nc1ccc(S(C)=O)cc1 (stereo unspecified) | 198 °C |
| O=C(Nc1ccccc1)NC1CCCCC1 | 164 °C |
| CC(C)(C)OC(=O)N1CCc2cc([N+](=O)[O-])ccc2C1 | 138 to 141 °C |
| N=C(NNC=O)c1ccc(-c2ccc(Cl)cc2)o1 | 155 to 157 °C |
| C#CC(O)c1ccc(C(=O)OC)s1 (stereo unspecified) | 67 °C |
| ICC(c1ccccc1)c1ccccc1 | 76 to 78 °C |
| COc1cc(OC)c2c(c1)c(C(=O)C(=O)NC1=CC(=O)OC1)cn2Cc1ccc(Cl)cc1 | 280 to 282 °C |
| Cc1ccc(-n2nc(C(=O)CCCO)cc2-c2ccc(S(C)(=O)=O)cc2)cc1 | 159 to 161 °C |
| COC(=O)C(CCCCNC(=O)c1ccc(N)cc1)n1c2ccccc2c2ccccc21 (stereo unspecified) | 90 to 91 °C |
| CC(=O)c1cc(I)c2c(c1)C=CC(C)(C)O2 | 102 °C |
| O=C(O)Cc1ccnc2c(NC(=O)c3c(Cl)cccc3Cl)cccc12 | 228 to 230 °C |
| Cc1ccc(-c2nsc3ccccc23)cc1 | 56 °C |
| CCN(Cc1cc(C(C)=O)ccc1NC(C)=O)C1CCCCC1 | 98 to 100 °C |
| CCOC(=O)C=Cc1ccc(CCc2nc(-c3ccccc3)c(C)s2)cc1 | 69 to 70 °C |
| CCc1cccc(C)c1NCN1CCOC1=O | 56 to 57.5 °C |
| Cc1ccc(S(=O)(=O)N2CCCN(c3cccc(C)c3C)CC2)cc1 | 86.2 °C |
| CCOCCC(=O)OC1(C(=O)CO)CCC2C3CC(C)C4=CC(=O)C=CC4(C)C3C(O)CC21C (stereo unspecified) | 167 °C |
| Cc1c2cnc3c([N+](=O)[O-])cccc3c2nn1C | 235 to 236 °C |

| SMILES | melting point |
| --- | --- |
| CC(C)Oc1cccc(CC(=O)OCc2c(-c3ccccc3)c3cc(Cl)ccc3c(=O)n2C)c1 | 130 to 132 °C |
| CC(C)(O)c1ccc(-c2cnc3[nH]c(=O)n(CC4CCCCC4)c3n2)cc1 | 226 to 228 °C |
| CN1CCc2cc(Cl)c(O)cc2[C@H](c2ccccc2)C1 | 188 to 189 °C |
| Cc1cccc(NC(=O)NC2CN(C(=O)C(C)(C)C)c3ccc(C)cc3N(CC(=O)c3ccccc3C)C2=O)c1 (stereo unspecified) | 218 to 220 °C |
| CN1CCCC1=Cc1ccc(Cl)cc1 | 63 °C |
| COc1ccc(-c2cncc(OC3SCC(OC(C)=O)C(OC(C)=O)C3OC(C)=O)c2)c(Cl)c1 (stereo unspecified) | 126 °C |
| O=C(O)Cc1cccc(C(=O)c2ccc(Cl)cc2)c1 | 148 °C |
| N[C@@H](Cc1ccc(Cl)c(OC(F)(F)C(F)F)c1)[C@H](O)c1ccc(F)cc1 (racemic) | 109 to 110 °C |
| Cc1ncccc1Oc1ccc(N)cn1 | 95 to 100 °C |
| CCN1C(=O)C(C)(C)C(=O)N(C)c2cc(CN(CCn3ccc4ccsc4c3=O)Cc3cccnc3C)ccc21 | 125 to 127 °C |
| COc1cc(NC(=O)OC(C)(C)C)c(NC(=O)CC(=O)c2cccc(C#N)c2)cc1C#Cc1ccccc1 | 169 °C |
| COc1ccc(CNc2n[nH]cc2C(=O)O)cc1OC1CCCC1 | 134 to 136 °C |
| N=C(NO)c1ccc(-c2ccc(-c3ccc(C(=N)NO)o3)cc2)o1 | > 300 °C |
| CC1=NC(=NOC(=O)NC2CC2)SC1(C)C | 86 to 89 °C |
| COC(=O)c1ccc2nc3c(C)sc(C)c3c(=O)n2c1 | 209 to 210 °C |
| NS(=O)(=O)c1cccc(-c2noc(-c3cnn4c(C(F)(F)F)cc(-c5ccc(C(F)(F)F)c(OCC(F)(F)F)c5)nc34)n2)c1 | 250 °C |
| CC(C(=O)NC1CCCCC1)N1CCN(c2ccccn2)CC1 (stereo unspecified) | 126 to 128 °C |
| CCOC(=O)N(Cc1ccccc1)Cn1cc(Cl)cnc1=O | 143 °C |
| COc1ccc(N2CCOCC2)c2sc(NC(=O)N(C)C3CCC(C(F)(F)F)CC3)nc12 (stereo unspecified) | 157 to 167 °C |
| Cc1c2[nH]c(C(=O)O)cc(=O)c2cc2c(=O)cc(C(=O)O)[nH]c12 | > 310 °C |
| COC(=O)Cn1nnnc1-c1c(Cl)c(Cl)cc2[nH]c(=O)c(=O)[nH]c12 | 281 to 283 °C |
| COc1cc2c(cc1Nc1ncc(Cl)c(Nc3ccccc3S(=O)(=O)C(C)C)n1)CCN(CC(=O)N1CCCC1)CC2 | 88 to 105 °C |
| CCCCOc1ccccc1-c1ncc(C(=O)OCC)c(=O)[nH]1 | 123 to 125 °C |
